# Assay results reported in ChEMBL document CHEMBL4507311, “Data for DCP probe A-1155463” (2021).
# Tests used:
# [1] = tested on: Tyrosine-protein kinase ABL1 (Homo sapiens), P00519 [T315I]; details: Compound concentration 1000.0 nM
# [2] = molecular target: Ribosomal protein S6 kinase alpha-2 (Homo sapiens) (UniProt Q15349); details: Compound concentration 1000.0 nM
# [3] = molecular target: RAC-alpha serine/threonine-protein kinase (Homo sapiens) (UniProt P31749); details: Compound concentration 1000.0 nM
# [4] = molecular target: Ephrin type-B receptor 6 (Homo sapiens) (UniProt O15197); details: Compound concentration 1000.0 nM
# [5] = molecular target: Uncharacterized serine/threonine-protein kinase SBK3 (Homo sapiens) (UniProt P0C264); details: Compound concentration 1000.0 nM
# [6] = molecular target: Phosphatidylinositol 5-phosphate 4-kinase type-2 beta (Homo sapiens) (UniProt P78356); details: Compound concentration 1000.0 nM
# [7] = molecular target: Tyrosine-protein kinase ZAP-70 (Homo sapiens) (UniProt P43403); details: Compound concentration 1000.0 nM
# Sequence of Tyrosine-protein kinase ZAP-70 (Homo sapiens) (P43403 whole entry): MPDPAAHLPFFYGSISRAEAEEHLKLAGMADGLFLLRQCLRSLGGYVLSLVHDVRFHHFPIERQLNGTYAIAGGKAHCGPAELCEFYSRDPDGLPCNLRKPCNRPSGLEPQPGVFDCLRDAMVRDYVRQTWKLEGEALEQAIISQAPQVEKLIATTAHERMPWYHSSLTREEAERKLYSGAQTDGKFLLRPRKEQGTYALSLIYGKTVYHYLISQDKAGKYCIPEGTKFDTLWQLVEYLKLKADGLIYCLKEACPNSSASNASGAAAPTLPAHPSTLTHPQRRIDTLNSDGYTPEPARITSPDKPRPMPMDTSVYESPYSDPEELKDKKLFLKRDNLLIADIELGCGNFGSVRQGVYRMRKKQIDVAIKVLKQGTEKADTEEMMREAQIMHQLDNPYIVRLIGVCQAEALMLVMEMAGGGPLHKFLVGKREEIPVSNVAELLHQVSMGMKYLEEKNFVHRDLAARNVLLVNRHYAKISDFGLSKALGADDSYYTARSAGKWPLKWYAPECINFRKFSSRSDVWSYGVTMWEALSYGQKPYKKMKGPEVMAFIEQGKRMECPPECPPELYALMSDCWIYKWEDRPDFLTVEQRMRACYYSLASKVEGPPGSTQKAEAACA
# [8] = molecular target: Tyrosine-protein kinase JAK3 (Homo sapiens) (UniProt P52333); details: Compound concentration 1000.0 nM
# [9] = molecular target: Dual specificity mitogen-activated protein kinase kinase 3 (Homo sapiens) (UniProt P46734); details: Compound concentration 1000.0 nM
# [10] = molecular target: Ribosomal protein S6 kinase alpha-4 (Homo sapiens) (UniProt O75676); details: Compound concentration 1000.0 nM
# Sequence of Ribosomal protein S6 kinase alpha-4 (Homo sapiens) (O75676 whole entry, looked up, the tested form may be a part): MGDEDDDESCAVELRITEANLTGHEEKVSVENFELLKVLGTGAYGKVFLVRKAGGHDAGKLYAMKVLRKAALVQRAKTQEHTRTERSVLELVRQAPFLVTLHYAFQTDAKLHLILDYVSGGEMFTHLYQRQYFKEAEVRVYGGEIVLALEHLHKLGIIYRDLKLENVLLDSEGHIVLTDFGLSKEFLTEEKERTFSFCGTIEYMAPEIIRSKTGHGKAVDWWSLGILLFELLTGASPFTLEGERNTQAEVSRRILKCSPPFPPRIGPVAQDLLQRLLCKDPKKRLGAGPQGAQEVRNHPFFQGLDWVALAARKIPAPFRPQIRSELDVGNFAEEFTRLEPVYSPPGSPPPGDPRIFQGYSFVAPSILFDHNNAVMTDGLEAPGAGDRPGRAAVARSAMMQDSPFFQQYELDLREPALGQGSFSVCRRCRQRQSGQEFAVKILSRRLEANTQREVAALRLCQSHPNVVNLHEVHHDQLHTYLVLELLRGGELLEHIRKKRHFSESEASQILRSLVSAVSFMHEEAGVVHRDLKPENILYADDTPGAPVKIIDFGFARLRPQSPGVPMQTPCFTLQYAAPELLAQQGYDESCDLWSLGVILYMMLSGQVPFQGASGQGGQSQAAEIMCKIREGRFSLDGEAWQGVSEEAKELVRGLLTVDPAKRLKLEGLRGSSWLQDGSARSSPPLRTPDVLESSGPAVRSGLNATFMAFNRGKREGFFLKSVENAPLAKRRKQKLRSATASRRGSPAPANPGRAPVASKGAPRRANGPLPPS
# [11] = molecular target: Phosphatidylinositol 3-kinase C2 domain-containing subunit gamma (Homo sapiens) (UniProt O75747); details: Compound concentration 1000.0 nM
# [12] = molecular target: Dual specificity mitogen-activated protein kinase kinase 4 (Homo sapiens) (UniProt P45985); details: Compound concentration 1000.0 nM
# [13] = molecular target: Ribosomal protein S6 kinase alpha-3 (Homo sapiens) (UniProt P51812); details: Compound concentration 1000.0 nM
# Sequence of Ribosomal protein S6 kinase alpha-3 (Homo sapiens) (P51812 whole entry): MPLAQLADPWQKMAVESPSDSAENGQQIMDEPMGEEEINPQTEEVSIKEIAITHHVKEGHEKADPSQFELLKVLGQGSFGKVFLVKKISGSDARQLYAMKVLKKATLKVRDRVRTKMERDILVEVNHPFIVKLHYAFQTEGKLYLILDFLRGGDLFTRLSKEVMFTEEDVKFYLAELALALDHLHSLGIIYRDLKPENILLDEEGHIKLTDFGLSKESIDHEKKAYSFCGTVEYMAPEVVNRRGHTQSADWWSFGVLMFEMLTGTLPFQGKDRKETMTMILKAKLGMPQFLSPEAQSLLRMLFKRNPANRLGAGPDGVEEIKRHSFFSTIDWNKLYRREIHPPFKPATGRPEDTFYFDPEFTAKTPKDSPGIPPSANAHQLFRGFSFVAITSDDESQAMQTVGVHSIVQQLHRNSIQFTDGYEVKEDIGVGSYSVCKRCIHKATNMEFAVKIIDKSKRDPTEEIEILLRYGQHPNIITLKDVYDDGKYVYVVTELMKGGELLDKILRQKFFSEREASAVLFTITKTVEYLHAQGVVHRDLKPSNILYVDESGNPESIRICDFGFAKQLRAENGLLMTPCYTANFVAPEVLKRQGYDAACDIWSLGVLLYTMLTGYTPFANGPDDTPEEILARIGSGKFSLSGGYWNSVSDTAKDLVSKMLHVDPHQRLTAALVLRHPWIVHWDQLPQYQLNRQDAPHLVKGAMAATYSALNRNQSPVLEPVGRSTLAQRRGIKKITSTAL
# [14] = molecular target: Histamine H2 receptor (Homo sapiens) (UniProt P25021); details: Compound concentration 10.0 uM
# [15] = molecular target: RAF proto-oncogene serine/threonine-protein kinase (Homo sapiens) (UniProt P04049); details: Compound concentration 1000.0 nM
# [16] = molecular target: Serine/threonine-protein kinase OSR1 (Homo sapiens) (UniProt O95747); details: Compound concentration 1000.0 nM
# [17] = tested on: Receptor-type tyrosine-protein kinase FLT3 (Homo sapiens), P36888 [K663Q]; details: Compound concentration 1000.0 nM
# [18] = molecular target: Ribosomal protein S6 kinase alpha-6 (Homo sapiens) (UniProt Q9UK32); details: Compound concentration 1000.0 nM
# [19] = molecular target: Serine/threonine-protein kinase 38 (Homo sapiens) (UniProt Q15208); details: Compound concentration 1000.0 nM
# [20] = tested on: Leucine-rich repeat serine/threonine-protein kinase 2 (Homo sapiens), Q5S007 [G2019S]; details: Compound concentration 1000.0 nM
# [21] = molecular target: Phosphatidylinositol 4-phosphate 5-kinase type-1 gamma (Homo sapiens) (UniProt O60331); details: Compound concentration 1000.0 nM
# Sequence of Phosphatidylinositol 4-phosphate 5-kinase type-1 gamma (Homo sapiens) (O60331 whole entry, canonical isoform): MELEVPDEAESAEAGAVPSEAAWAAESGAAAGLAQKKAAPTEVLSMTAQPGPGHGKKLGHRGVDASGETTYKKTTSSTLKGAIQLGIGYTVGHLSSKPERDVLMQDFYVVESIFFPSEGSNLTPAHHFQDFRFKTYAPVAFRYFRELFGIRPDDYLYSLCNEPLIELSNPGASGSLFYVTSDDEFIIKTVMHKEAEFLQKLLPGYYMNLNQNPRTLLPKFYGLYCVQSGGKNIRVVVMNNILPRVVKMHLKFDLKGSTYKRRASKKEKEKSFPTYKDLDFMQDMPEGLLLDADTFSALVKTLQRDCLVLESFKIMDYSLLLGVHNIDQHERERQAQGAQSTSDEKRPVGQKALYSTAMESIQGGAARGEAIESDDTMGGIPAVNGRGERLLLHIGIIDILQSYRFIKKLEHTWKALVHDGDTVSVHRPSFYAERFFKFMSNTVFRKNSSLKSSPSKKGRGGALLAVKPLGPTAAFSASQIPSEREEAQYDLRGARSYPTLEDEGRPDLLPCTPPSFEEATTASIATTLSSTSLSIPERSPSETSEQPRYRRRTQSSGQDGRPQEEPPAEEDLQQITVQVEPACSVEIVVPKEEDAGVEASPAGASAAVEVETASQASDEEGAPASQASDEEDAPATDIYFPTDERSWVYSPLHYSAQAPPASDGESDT
# [22] = molecular target: Phosphatidylinositol 4,5-bisphosphate 3-kinase catalytic subunit beta isoform (Homo sapiens) (UniProt P42338); details: Compound concentration 1000.0 nM
# [23] = molecular target: Beta-adrenergic receptor kinase 1 (Homo sapiens) (UniProt P25098); details: Compound concentration 1000.0 nM
# [24] = molecular target: Angiopoietin-1 receptor (Homo sapiens) (UniProt Q02763); details: Compound concentration 1000.0 nM
# Histamine H3 receptor = Histamine H3 receptor (Homo sapiens, UniProt Q9Y5N1); details: Compound concentration 10.0 uM
# [25] = molecular target: Cyclin-dependent kinase-like 5 (Homo sapiens) (UniProt O76039); details: Compound concentration 1000.0 nM
# [26] = tested on: Tyrosine-protein kinase ABL1 (Homo sapiens), P00519 [F317L]; details: Compound concentration 1000.0 nM
# [27] = molecular target: Serine/threonine-protein kinase WNK2 (Homo sapiens) (UniProt Q9Y3S1); details: Compound concentration 1000.0 nM
# [28] = molecular target: Macrophage colony-stimulating factor 1 receptor (Homo sapiens) (UniProt P07333); details: Compound concentration 1000.0 nM
# [29] = molecular target: Cyclin-dependent kinase 19 (Homo sapiens) (UniProt Q9BWU1); details: Compound concentration 1000.0 nM
# [30] = molecular target: Ephrin type-A receptor 7 (Homo sapiens) (UniProt Q15375); details: Compound concentration 1000.0 nM
# [31] = molecular target: Serine/threonine-protein kinase 16 (Homo sapiens) (UniProt O75716); details: Compound concentration 1000.0 nM
# [32] = molecular target: Activin receptor type-1B (Homo sapiens) (UniProt P36896); details: Compound concentration 1000.0 nM
# [33] = tested on: ALK tyrosine kinase receptor (Homo sapiens), Q9UM73 [C1156Y]; details: Compound concentration 1000.0 nM
# Sequence of ALK tyrosine kinase receptor (Homo sapiens), Q9UM73 [C1156Y] (Q9UM73 whole entry C1156Y, looked up): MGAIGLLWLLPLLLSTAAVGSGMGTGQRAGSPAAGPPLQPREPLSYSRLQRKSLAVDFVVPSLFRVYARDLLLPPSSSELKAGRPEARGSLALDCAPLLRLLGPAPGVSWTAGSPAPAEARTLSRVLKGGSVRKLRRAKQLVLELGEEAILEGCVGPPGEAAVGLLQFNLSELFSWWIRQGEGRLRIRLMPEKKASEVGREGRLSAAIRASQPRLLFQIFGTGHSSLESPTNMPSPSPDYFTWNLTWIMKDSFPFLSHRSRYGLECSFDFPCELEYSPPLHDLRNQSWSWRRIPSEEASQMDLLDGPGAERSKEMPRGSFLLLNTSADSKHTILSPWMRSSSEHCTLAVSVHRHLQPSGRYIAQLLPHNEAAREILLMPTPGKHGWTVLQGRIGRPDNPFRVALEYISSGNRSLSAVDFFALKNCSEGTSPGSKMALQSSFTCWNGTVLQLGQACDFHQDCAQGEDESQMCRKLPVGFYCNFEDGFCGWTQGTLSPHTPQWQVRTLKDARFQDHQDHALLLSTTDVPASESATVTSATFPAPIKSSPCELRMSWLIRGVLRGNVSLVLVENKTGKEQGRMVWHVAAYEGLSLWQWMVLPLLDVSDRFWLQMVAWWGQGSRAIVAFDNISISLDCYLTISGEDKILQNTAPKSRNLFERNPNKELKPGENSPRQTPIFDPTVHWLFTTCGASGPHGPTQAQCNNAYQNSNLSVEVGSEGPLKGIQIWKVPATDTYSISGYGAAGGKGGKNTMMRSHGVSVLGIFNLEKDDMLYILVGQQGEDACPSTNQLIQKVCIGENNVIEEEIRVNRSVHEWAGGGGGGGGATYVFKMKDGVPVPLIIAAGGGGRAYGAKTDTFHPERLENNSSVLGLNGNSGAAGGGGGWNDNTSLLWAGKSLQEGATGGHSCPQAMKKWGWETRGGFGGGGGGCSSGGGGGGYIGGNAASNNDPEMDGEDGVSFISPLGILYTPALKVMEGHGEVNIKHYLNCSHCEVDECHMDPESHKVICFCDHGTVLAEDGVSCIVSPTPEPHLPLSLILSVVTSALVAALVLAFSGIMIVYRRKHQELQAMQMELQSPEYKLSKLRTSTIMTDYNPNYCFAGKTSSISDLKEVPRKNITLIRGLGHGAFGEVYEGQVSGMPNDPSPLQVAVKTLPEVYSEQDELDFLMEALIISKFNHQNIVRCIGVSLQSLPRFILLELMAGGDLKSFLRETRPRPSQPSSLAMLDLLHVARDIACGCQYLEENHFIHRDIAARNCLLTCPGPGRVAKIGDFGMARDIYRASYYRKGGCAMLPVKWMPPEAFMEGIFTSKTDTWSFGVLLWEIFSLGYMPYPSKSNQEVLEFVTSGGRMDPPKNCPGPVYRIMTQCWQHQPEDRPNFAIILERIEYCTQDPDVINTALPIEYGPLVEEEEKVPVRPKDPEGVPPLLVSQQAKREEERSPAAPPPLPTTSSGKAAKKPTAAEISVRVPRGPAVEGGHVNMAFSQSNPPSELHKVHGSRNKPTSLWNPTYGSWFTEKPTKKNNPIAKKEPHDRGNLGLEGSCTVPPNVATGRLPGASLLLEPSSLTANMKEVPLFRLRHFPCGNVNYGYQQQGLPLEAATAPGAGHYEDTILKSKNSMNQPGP
# [34] = molecular target: Proto-oncogene tyrosine-protein kinase ROS (Homo sapiens) (UniProt P08922); details: Compound concentration 1000.0 nM
# [35] = tested on: Epidermal growth factor receptor (Homo sapiens), P00533 [G719S]; details: Compound concentration 1000.0 nM
# [36] = molecular target: Mitogen-activated protein kinase kinase kinase 13 (Homo sapiens) (UniProt O43283); details: Compound concentration 1000.0 nM
# [37] = molecular target: Casein kinase I isoform gamma-2 (Homo sapiens) (UniProt P78368); details: Compound concentration 1000.0 nM
# Sequence of Casein kinase I isoform gamma-2 (Homo sapiens) (P78368 whole entry, looked up, canonical isoform): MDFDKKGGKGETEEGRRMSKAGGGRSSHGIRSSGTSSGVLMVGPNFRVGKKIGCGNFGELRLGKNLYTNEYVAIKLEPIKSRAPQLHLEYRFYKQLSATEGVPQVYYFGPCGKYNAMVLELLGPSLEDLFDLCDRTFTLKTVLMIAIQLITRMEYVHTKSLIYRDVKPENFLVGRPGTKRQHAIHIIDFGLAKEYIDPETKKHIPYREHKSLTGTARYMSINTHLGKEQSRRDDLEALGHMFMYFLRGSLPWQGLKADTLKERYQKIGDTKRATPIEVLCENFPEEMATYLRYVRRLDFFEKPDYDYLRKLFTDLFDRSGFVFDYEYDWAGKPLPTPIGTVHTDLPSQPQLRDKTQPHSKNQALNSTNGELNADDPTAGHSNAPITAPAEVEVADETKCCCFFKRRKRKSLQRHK
# [38] = molecular target: Bone morphogenetic protein receptor type-2 (Homo sapiens) (UniProt Q13873); details: Compound concentration 1000.0 nM
# [39] = molecular target: Serine/threonine-protein kinase MRCK beta (Homo sapiens) (UniProt Q9Y5S2); details: Compound concentration 1000.0 nM
# [40] = tested on: Mast/stem cell growth factor receptor Kit (Homo sapiens), P10721 [L576P]; details: Compound concentration 1000.0 nM
# [41] = molecular target: Calcium/calmodulin-dependent protein kinase type 1G (Homo sapiens) (UniProt Q96NX5); details: Compound concentration 1000.0 nM
# [42] = molecular target: Ribosomal protein S6 kinase alpha-3 (Homo sapiens) (UniProt P51812); details: Compound concentration 1000.0 nM; remark: listed apart in the source
# [43] = molecular target: Serine/threonine-protein kinase MRCK alpha (Homo sapiens) (UniProt Q5VT25); details: Compound concentration 1000.0 nM
# [44] = molecular target: 1-phosphatidylinositol 3-phosphate 5-kinase (Homo sapiens) (UniProt Q9Y2I7); details: Compound concentration 1000.0 nM
smiles,measurement,setting,value
CN(C)CC#Cc1ccc(OCCCc2sc(N3CCc4cccc(C(=O)Nc5nc6ccccc6s5)c4C3)nc2C(=O)O)c(F)c1 [A-1155463],residual activity,[1],92%
same,residual activity,[2],100%
same,residual activity,[3],100%
same,residual activity,[4],100%
same,residual activity,[5],100%
same,residual activity,[6],80%
same,residual activity,[7],100%
same,residual activity,[8],58%
same,residual activity,[9],100%
same,residual activity,[10],96%
same,residual activity,[11],100%
same,residual activity,[12],100%
same,residual activity,[13],97%
same,inhibition,[14],23.2%
same,residual activity,[15],97%
same,residual activity,[16],86%
same,residual activity,[17],100%
same,residual activity,[18],90%
same,residual activity,[19],76%
same,residual activity,[20],100%
same,residual activity,[21],100%
same,residual activity,[22],100%
same,residual activity,[23],100%
same,residual activity,[24],100%
same,inhibition,Histamine H3 receptor,53.3%
same,residual activity,[25],96%
same,residual activity,[26],100%
same,residual activity,[27],96%
same,residual activity,[28],100%
same,residual activity,[29],95%
same,residual activity,[30],99%
same,residual activity,[31],92%
same,residual activity,[32],100%
same,residual activity,[33],100%
same,residual activity,[34],93%
same,residual activity,[35],100%
same,residual activity,[36],96%
same,residual activity,[37],92%
same,residual activity,[38],100%
same,residual activity,[39],87%
same,residual activity,[40],95%
same,residual activity,[41],94%
same,residual activity,[42],100%
same,residual activity,[43],97%
same,residual activity,[44],100%
